# Assay results reported in patent US20230226184A1, “IMPROVEMENTS IN ULTRASOUND-MEDIATED THERAPY” (Bracco Suisse SA, priority 2020, published 2023).
# Tests used:
# [1] = tested on: mesenteric rat microcirculation; assay: Vasospasm inhibition by vasospasm inhibitor pre-treatment before US-MV (Examples 4, 7); type: in vivo; conditions: for ability to inhibit the vasospasm: Example 7, conditions of Table 6 (P02, US 400 kPa, 5 min); for Vasospasm occurrence (on 3 animals/condition) / Vasospasm occurrence, percent: P02 1.5E+09 MV/kg, 1 bolus, US 400 kPa, 1 ms ON/10 s OFF, 5 min
# Experimental: The model used for these experiments was the mesenteric rat microcirculation. Briefly, anesthetized animals were prepared to allow the visualization of an intestinal loop. The injections were made in the tail vein.
# Rats were placed under the inverted microscope (Olympus® X2) equipped with a X20 objectives (mag final: 200). A numeric camera, driven by an open source software, acquired and recorded 30 s video at each time points required, in accordance with the protocol.
# US treatment was delivered by an experimental single element transducer (unfocused, plane, 1.5 MHz). Table 1 reports the tested US parameters, including the pulse scheme, the acoustic pressure and the duration of US application, for each protocol. The transducer was focus on the optical objective and placed to respect a working distance of 5 cm.
# Image sequences were acquired, before, during and after treatment. Additional acquisitions could be performed every 5 min until 40 min after the initiation of US exposure to monitor the vasospasm resolution.
# The model used for these experiments was the mesenteric rat microcirculation. The model and animal preparation were described in example 2.
# This study aimed at the evaluation of the inhibition of vasospasm induced by a vasospasm inhibitor compound, in particular the dihydropiridine calcium channel blocker nimodipine.
# For this purpose, the rats received a pre-treatment with nimodipine, 10 mins before the combined treatment of gas-filled microvesicles and ultrasound for therapy.
# Nimodipine (Sigma Aldrich, Switzerland) powder was first diluted in DMSO (40 mg/ml); the injected dose (1.4 mg/kg) was extemporary prepared in NaCl 0.9% and injected 10 min before the treatment.
# The treatment parameters were chosen in accordance with the previous studies to obtain the generation of a vasospasm. P01 formulation was administered for this study.
# This study aimed at assessing the efficacy of different pharmacological classes of vasospasm inhibitor drugs currently used in clinic on the vasospasm inhibition.
# The duration between pre-treatment and injection of microvesicles and ultrasound treatment was in accordance with the pharmacocinetik pharmacokinetics and pharmacodynamics of each drug.
# NMU rat tumor model = assay: Extravasation of Cy5.5-labeled 150 kDa-dextran in tumour after US-MV treatment (Example 1); type: in vivo
# Experimental: The model used was the NMU rat tumor model. Pre-pubescent rats (female, Sprague Dawley) received a single intra-peritoneal injection of 50 mg/kg of NMU (N-nitroso-N-methylurea, Sigma, Switzerland). Rats developing tumours were enrolled in protocol. In the NMU model, animals can develop several tumours allowing to have tumors receiving microvesicles and ultrasound for therapy; and tumors without ultrasound insonation (called untreated) in the same animal. The rats were anesthetized and placed on dorsal decubitus. A catheter was placed in the tail vein to inject drugs and microvesicles. The US treatment transducer was placed at 5 cm of the tumor (spaced by a water tank). […] To evaluate the efficiency of molecular extravasation, a 150 kDa-dextran labeled with Cy©5.5 fluorophore was injected just before therapeutic treatment with ultrasounds and microvesicles. […] Tumors were then harvested from sacrificed animals; the fluorescence was quantified on image acquired ex vivo (Fluobeam® 700). The fluorescence was quantified by ImageJ software.
# NMU tumor = assay: Tumour perfusion during US-MV treatment followed by contrast echography (Example 6); type: in vivo, rat; conditions: Nimodipine 1.4 mg/kg iv 10 min before; P02 1.2E+09 MV/kg, 4 boluses; US 600 kPa, 1 ms ON/15 s OFF, 20 min
# Experimental: Pre-pubescent rats (female, Sprague Dawley) received a single intra-peritoneal injection of 50 mg/kg of NMU (N-nitroso-N-methylurea, Sigma, Switzerland). […] Serial bolus injections of gas-filled microvesicles (as specified in Table 5) were performed and the tumor was submitted to therapeutic insonation (frequency, acoustic pressure and pulse characteristics as specified in the subsequent examples). The perfusion of tumor during treatment was assessed as described in Example 5. All parameters relative to microvesicles and ultrasound treatment were fixed (see Table 5). The therapeutic insonation parameters were chosen in accordance with the previous studies, to obtain a vascular permeabilization in the NMU tumor.
# [2] = tested on: mesenteric rat microcirculation; assay: Vasospasm inhibition by vasospasm inhibitor pre-treatment before US-MV (Examples 4, 7); type: in vivo; conditions: Nimodipine 1.4 mg/kg, pre-treatment time 10 min; P02 1.5E+09 MV/kg, 1 bolus; US 400 kPa, 1 ms ON/10 s OFF, 5 min
# mouse DA3 tumor model = assay: Tumour perfusion during US-MV treatment followed by contrast echography (Example 5); type: in vivo; conditions: Nimodipine 1.4 mg/kg iv 10 min before; P01 1.3E+09 MV/kg, 4 boluses; US 800 kPa, 1 ms ON/15 s OFF, 25 min
# Experimental: The mouse DA3 tumor model was used in these studies. The US treatment was delivered by the Verasonic® system (probe P4-2). The probe was placed at 5 cm from the tumor (spaced by a water tank, filled with degassed water). […] The perfusion of each tumor was followed by the echographic signal of microvesicles (Verasonic® system). The signal was recorded and post-analysed with Vuebox® software. […] The expression “replenishment time” indicates the time required to supply the area under the ultrasound beam with the vessel with fresh gas-filled microvesicles, after the substantial destruction of MV caused by each US pulse. The expression “MV destruction” corresponds to the loss of integrity or structure of MV caused by acoustic activation of MV by US. This can be provoked for example by MV collapse or gas dissolution and monitored by acoustic signal follow up. All parameters relative to microvesicles and ultrasound treatment were fixed (see Table 4). The therapeutic insonation parameters were chosen in accordance with the previous studies, to obtain a vascular permeabilization in the DA3 tumor.
# [3] = Mg^2+ 300 mM, pre-treatment time 0 min
# [4] = Prazosin 0.5 mg/kg, pre-treatment time 10 min
# [5] = Trinitrine (dose not given), pre-treatment time 1 min
compound,measurement,setting,value
"C[C@H](CS)C(=O)N1CCC[C@H]1C(=O)O [Captoprill, Captopril]",ability to inhibit the vasospasm,[1],did not show any relevant inhibiting activity
"[Mg+2] [Mg^2+, magnesium]",ability to inhibit the vasospasm,[1],good ability to inhibit the vasospasm
same,Vasospasm occurrence (on 3 animals/condition),[1]; [3],0/3
same,"Vasospasm occurrence, percent",[1]; [3],0%
COCCOC(=O)C1=C(C)NC(C)=C(C(=O)OC(C)C)C1c1cccc([N+](=O)[O-])c1 (stereo not shown) [Nimodipine],"mean fluorescence value (Cy5.5 dextran in tumour, ex vivo)","NMU rat tumor model; fifth group: VI pre-administration (Nimodipine 1.4 mg/kg, 10 min before) then US-MV, 600 kPa, 1 ms ON/10 s OFF, 20 min",2060 RFU/px/ms
same,"mean fluorescence signal (Cy5.5 dextran in tumour, ex vivo)","NMU rat tumor model; third group: VI+MV, no US, Nimodipine 1.4 mg/kg 10 min before, MV P02 or Definity 8 μl gas/kg in 4 boluses",1030 RFU/px/ms
same,"Decrease of perfusion in tumor, percent",NMU tumor,(100%)
same,Vasospasm occurrence (on 3 animals/condition),[2],0/3
same,"Vasospasm occurrence, percent",[2],100%
same,"Decrease of perfusion in tumor, percent",mouse DA3 tumor model,0%
COc1cc2nc(N3CCN(C(=O)c4ccco4)CC3)nc(N)c2cc1OC [Prazosin],ability to inhibit the vasospasm,[1],lower ability
same,Vasospasm occurrence (on 3 animals/condition),[1]; [4],1/3
same,"Vasospasm occurrence, percent",[1]; [4],33%
O=[N+]([O-])OCC(CO[N+](=O)[O-])O[N+](=O)[O-] [Trinitrine],ability to inhibit the vasospasm,[1],good ability to inhibit the vasospasm
same,Vasospasm occurrence (on 3 animals/condition),[1]; [5],0/3
same,"Vasospasm occurrence, percent",[1]; [5],(0%)
